{"source": "patent US6387850B1", "about": "“Pesticide composition and method” (Application Technologies, Inc., priority 1998, dated 2002)", "test_in_all_cases": "Field weed control in glyphosate-tolerant soybeans, visual rating", "format_in_all_cases": "in vivo", "conditions_in_all_cases": "23 days after application, scale 0 = no, 10 = complete weed control", "key": {"[1]": {"tested_on": "giant foxtail (Setaria faberii)", "description": "(§1) Materials and Methods: Applications were made to glyphosate-tolerant soybeans on Jun. 10, 1998. Weed species present ranging in height from 5 to 20 cm included giant foxtail (Setaria faberii), barnyard grass (Echinochloa crus-galli), volunteer corn (Zea mays) and yellow foxtail (Setaria glauca) Treatments were applied using Spraying Systems Turbo TeeJet TT-11002 nozzles spaced 50 cm apart on the spray boom at 207 kPa spray pressure resulting in a spray volume application of […] liters per hectare.\n(§2) Spray solutions consisted of two comparison levels of mineral hardness as measured by TDS in ppm. The original solution consisted of 10 ppm. The second solution measuring 400 ppm was established using calcium chloride at approximately 227 grams per 378 liters.\n(§3) Herbicide applications of glyphosate in form of Roundup Ultra® (Monsanto Company) formulation were applied at four rates: 26, 53, 105 and 210 grams of acid equivalent per hectare (g ae/ha) A spray adjuvant, Array® at 4 kilograms per 378 liters of spray solution was added to the spray solution prior to the addition of the herbicide. Array was evaluated across herbicide and spray solution treatments. Array consists of a micro-homogenized combination of AMS (ammonium sulfate) fertilizer at 94.4% analysis 21-0-0-24 (nitrogen-phosphorus-potassium-sulfur) and DR 2000 (Rhodia Surfactants) at 5.6%, a short-chain guar-based polymer."}, "[2]": {"tested_on": "barnyard grass (Echinochloa crus-galli)", "description": "as §1, §2, §3"}, "[3]": {"tested_on": "volunteer corn (Zea mays)", "description": "as §1, §2, §3"}, "[4]": {"tested_on": "yellow foxtail (Setaria glauca)", "description": "as §1, §2, §3"}, "[5]": {"conditions": "26 g ae/ha, solution TDS 10 ppm, Array 4 kg/378 L Yes"}, "[6]": {"conditions": "26 g ae/ha, solution TDS 10 ppm, Array No"}, "[7]": {"conditions": "26 g ae/ha, solution TDS 400 ppm, Array 4 kg/378 L Yes"}, "[8]": {"conditions": "26 g ae/ha, solution TDS 400 ppm, Array No"}, "[9]": {"conditions": "53 g ae/ha, solution TDS 10 ppm, Array 4 kg/378 L Yes"}, "[10]": {"conditions": "53 g ae/ha, solution TDS 10 ppm, Array No"}, "[11]": {"conditions": "53 g ae/ha, solution TDS 400 ppm, Array 4 kg/378 L Yes"}, "[12]": {"conditions": "53 g ae/ha, solution TDS 400 ppm, Array No"}, "[13]": {"conditions": "105 g ae/ha, solution TDS 10 ppm, Array 4 kg/378 L Yes"}, "[14]": {"conditions": "105 g ae/ha, solution TDS 10 ppm, Array No"}, "[15]": {"conditions": "105 g ae/ha, solution TDS 400 ppm, Array 4 kg/378 L Yes"}, "[16]": {"conditions": "105 g ae/ha, solution TDS 400 ppm, Array No"}, "[17]": {"conditions": "210 g ae/ha, solution TDS 10 ppm, Array 4 kg/378 L Yes"}, "[18]": {"conditions": "210 g ae/ha, solution TDS 10 ppm, Array No"}, "[19]": {"conditions": "210 g ae/ha, solution TDS 400 ppm, Array 4 kg/378 L Yes"}, "[20]": {"conditions": "210 g ae/ha, solution TDS 400 ppm, Array No"}}, "data": [{"compound": "O=C(O)CNCP(=O)(O)O", "note": "[Glyphosate, glyphosate]", "values": [{"measurement": "Visual rating of weed control, Giant Foxtail", "setting": "[1]; [5]", "result": 3}, {"measurement": "Visual rating of weed control, Giant Foxtail", "setting": "[1]; [6]", "result": 2}, {"measurement": "Visual rating of weed control, Giant Foxtail", "setting": "[1]; [7]", "result": 1}, {"measurement": "Visual rating of weed control, Giant Foxtail", "setting": "[1]; [8]", "result": 0}, {"measurement": "Visual rating of weed control, Giant Foxtail", "setting": "[1]; [9]", "result": 4}, {"measurement": "Visual rating of weed control, Giant Foxtail", "setting": "[1]; [10]", "result": 3}, {"measurement": "Visual rating of weed control, Giant Foxtail", "setting": "[1]; [11]", "result": 2}, {"measurement": "Visual rating of weed control, Giant Foxtail", "setting": "[1]; [12]", "result": 1}, {"measurement": "Visual rating of weed control, Giant Foxtail", "setting": "[1]; [13]", "result": 8}, {"measurement": "Visual rating of weed control, Giant Foxtail", "setting": "[1]; [14]", "result": 6}, {"measurement": "Visual rating of weed control, Giant Foxtail", "setting": "[1]; [15]", "result": 3}, {"measurement": "Visual rating of weed control, Giant Foxtail", "setting": "[1]; [16]", "result": 2}, {"measurement": "Visual rating of weed control, Giant Foxtail", "setting": "[1]; [17]", "result": 10}, {"measurement": "Visual rating of weed control, Giant Foxtail", "setting": "[1]; [18]", "result": 9}, {"measurement": "Visual rating of weed control, Giant Foxtail", "setting": "[1]; [19]", "result": 6}, {"measurement": "Visual rating of weed control, Giant Foxtail", "setting": "[1]; [20]", "result": 5}, {"measurement": "Visual rating of weed control, Barnyard Grass", "setting": "[2]; [5]", "result": 3}, {"measurement": "Visual rating of weed control, Barnyard Grass", "setting": "[2]; [6]", "result": 2}, {"measurement": "Visual rating of weed control, Barnyard Grass", "setting": "[2]; [7]", "result": 1}, {"measurement": "Visual rating of weed control, Barnyard Grass", "setting": "[2]; [8]", "result": 0}, {"measurement": "Visual rating of weed control, Barnyard Grass", "setting": "[2]; [9]", "result": 5}, {"measurement": "Visual rating of weed control, Barnyard Grass", "setting": "[2]; [10]", "result": 4}, {"measurement": "Visual rating of weed control, Barnyard Grass", "setting": "[2]; [11]", "result": 2}, {"measurement": "Visual rating of weed control, Barnyard Grass", "setting": "[2]; [12]", "result": 1}, {"measurement": "Visual rating of weed control, Barnyard Grass", "setting": "[2]; [13]", "result": 7}, {"measurement": "Visual rating of weed control, Barnyard Grass", "setting": "[2]; [14]", "result": 5}, {"measurement": "Visual rating of weed control, Barnyard Grass", "setting": "[2]; [15]", "result": 3}, {"measurement": "Visual rating of weed control, Barnyard Grass", "setting": "[2]; [16]", "result": 2}, {"measurement": "Visual rating of weed control, Barnyard Grass", "setting": "[2]; [17]", "result": 10}, {"measurement": "Visual rating of weed control, Barnyard Grass", "setting": "[2]; [18]", "result": 9}, {"measurement": "Visual rating of weed control, Barnyard Grass", "setting": "[2]; [19]", "result": 6}, {"measurement": "Visual rating of weed control, Barnyard Grass", "setting": "[2]; [20]", "result": 5}, {"measurement": "Visual rating of weed control, Volunteer Corn", "setting": "[3]; [5]", "result": 2}, {"measurement": "Visual rating of weed control, Volunteer Corn", "setting": "[3]; [6]", "result": 1}, {"measurement": "Visual rating of weed control, Volunteer Corn", "setting": "[3]; [7]", "result": 1}, {"measurement": "Visual rating of weed control, Volunteer Corn", "setting": "[3]; [8]", "result": 0}, {"measurement": "Visual rating of weed control, Volunteer Corn", "setting": "[3]; [9]", "result": 4}, {"measurement": "Visual rating of weed control, Volunteer Corn", "setting": "[3]; [10]", "result": 3}, {"measurement": "Visual rating of weed control, Volunteer Corn", "setting": "[3]; [11]", "result": 2}, {"measurement": "Visual rating of weed control, Volunteer Corn", "setting": "[3]; [12]", "result": 1}, {"measurement": "Visual rating of weed control, Volunteer Corn", "setting": "[3]; [13]", "result": 8}, {"measurement": "Visual rating of weed control, Volunteer Corn", "setting": "[3]; [14]", "result": 5}, {"measurement": "Visual rating of weed control, Volunteer Corn", "setting": "[3]; [15]", "result": 3}, {"measurement": "Visual rating of weed control, Volunteer Corn", "setting": "[3]; [16]", "result": 2}, {"measurement": "Visual rating of weed control, Volunteer Corn", "setting": "[3]; [17]", "result": 10}, {"measurement": "Visual rating of weed control, Volunteer Corn", "setting": "[3]; [18]", "result": 9}, {"measurement": "Visual rating of weed control, Volunteer Corn", "setting": "[3]; [19]", "result": 6}, {"measurement": "Visual rating of weed control, Volunteer Corn", "setting": "[3]; [20]", "result": 5}, {"measurement": "Visual rating of weed control, Yellow Foxtail", "setting": "[4]; [5]", "result": 2}, {"measurement": "Visual rating of weed control, Yellow Foxtail", "setting": "[4]; [6]", "result": 2}, {"measurement": "Visual rating of weed control, Yellow Foxtail", "setting": "[4]; [7]", "result": 1}, {"measurement": "Visual rating of weed control, Yellow Foxtail", "setting": "[4]; [8]", "result": 0}, {"measurement": "Visual rating of weed control, Yellow Foxtail", "setting": "[4]; [9]", "result": 4}, {"measurement": "Visual rating of weed control, Yellow Foxtail", "setting": "[4]; [10]", "result": 3}, {"measurement": "Visual rating of weed control, Yellow Foxtail", "setting": "[4]; [11]", "result": 2}, {"measurement": "Visual rating of weed control, Yellow Foxtail", "setting": "[4]; [12]", "result": 1}, {"measurement": "Visual rating of weed control, Yellow Foxtail", "setting": "[4]; [13]", "result": 7}, {"measurement": "Visual rating of weed control, Yellow Foxtail", "setting": "[4]; [14]", "result": 5}, {"measurement": "Visual rating of weed control, Yellow Foxtail", "setting": "[4]; [15]", "result": 3}, {"measurement": "Visual rating of weed control, Yellow Foxtail", "setting": "[4]; [16]", "result": 2}, {"measurement": "Visual rating of weed control, Yellow Foxtail", "setting": "[4]; [17]", "result": 9}, {"measurement": "Visual rating of weed control, Yellow Foxtail", "setting": "[4]; [18]", "result": 8}, {"measurement": "Visual rating of weed control, Yellow Foxtail", "setting": "[4]; [19]", "result": 5}, {"measurement": "Visual rating of weed control, Yellow Foxtail", "setting": "[4]; [20]", "result": 5}]}]}
